Source: patent publication EP1247803A2, “Indolinone compounds suitable for modulation of protein kinases” (Sugen, Inc., priority 1996, dated 1998)

Columns and labels:
MET = MET biochemical kinase assay; design: species or system human; concentration or dose not given beside the values
Method in brief: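 MET from cell lysates captured on ELISA plates via rabbit anti-MET cytoplasmic-domain antibody; compounds added and kinase reaction run in ATP and divalent-metal buffer. Receptor phosphotyrosine detected with HRP-conjugated anti-phosphotyrosine antibody and TMB colorimetry.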

EGFR = target: T1, EGFR (Homo sapiens, UniProt P00533); experiment: EGFR ELISA assay (in vitro kinase activity, EGFR captured from A431 cell lysate); type: biochemical; design: concentration or dose not given beside the values
T1 construct: Add 7 ug A431 cell lysate per well (EGFR source); endogenous in cells; host or cells: A431
T1 sequence (P00533 25-1210): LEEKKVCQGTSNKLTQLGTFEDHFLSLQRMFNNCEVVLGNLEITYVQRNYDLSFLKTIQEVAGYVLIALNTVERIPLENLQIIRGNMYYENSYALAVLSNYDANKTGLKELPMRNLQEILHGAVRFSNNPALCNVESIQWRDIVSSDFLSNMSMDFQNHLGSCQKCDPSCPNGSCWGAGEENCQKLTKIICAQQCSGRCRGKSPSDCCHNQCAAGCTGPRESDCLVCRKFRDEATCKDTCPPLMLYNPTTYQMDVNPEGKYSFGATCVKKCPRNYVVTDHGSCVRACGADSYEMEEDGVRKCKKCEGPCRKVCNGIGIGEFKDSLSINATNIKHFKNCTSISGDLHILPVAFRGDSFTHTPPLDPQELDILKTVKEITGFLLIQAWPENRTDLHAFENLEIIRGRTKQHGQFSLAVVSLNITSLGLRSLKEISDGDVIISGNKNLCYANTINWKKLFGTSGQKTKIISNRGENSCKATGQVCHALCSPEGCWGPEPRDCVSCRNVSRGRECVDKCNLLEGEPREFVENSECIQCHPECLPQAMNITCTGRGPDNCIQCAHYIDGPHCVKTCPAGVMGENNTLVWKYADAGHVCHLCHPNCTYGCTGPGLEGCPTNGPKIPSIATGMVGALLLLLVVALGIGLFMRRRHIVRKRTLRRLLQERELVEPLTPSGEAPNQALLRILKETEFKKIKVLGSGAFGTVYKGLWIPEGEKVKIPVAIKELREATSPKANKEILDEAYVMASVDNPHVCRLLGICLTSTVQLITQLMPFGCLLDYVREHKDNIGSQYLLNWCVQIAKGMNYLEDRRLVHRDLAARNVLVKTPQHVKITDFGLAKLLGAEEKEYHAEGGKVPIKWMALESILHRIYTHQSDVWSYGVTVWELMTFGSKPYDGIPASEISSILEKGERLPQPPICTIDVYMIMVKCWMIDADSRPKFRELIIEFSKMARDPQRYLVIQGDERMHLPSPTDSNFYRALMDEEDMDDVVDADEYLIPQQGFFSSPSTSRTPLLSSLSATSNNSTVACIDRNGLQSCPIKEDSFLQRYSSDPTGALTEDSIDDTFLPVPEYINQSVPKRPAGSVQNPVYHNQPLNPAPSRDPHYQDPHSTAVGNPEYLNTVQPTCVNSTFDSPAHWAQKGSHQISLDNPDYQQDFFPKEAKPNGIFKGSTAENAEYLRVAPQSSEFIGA
Method in brief: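 Receptor autophosphorylation was read by ELISA: anti-phosphotyrosine serum and an HRP-linked secondary with ABTS substrate, absorbance at 410 nm (reference 630 nm). The reaction ran 5 min with 3 µM ATP and 5 mM MnCl2 and was quenched by 20 mM EDTA. Compounds were first incubated 30 min with antibody-captured EGFR from A431 cell lysate.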

| SMILES | Met Kinase % Inhibition (MET) [%] | Biochem EGFR %Inhibition (EGFR) [%] |
| --- | --- | --- |
| O=C1Nc2ccc(S(=O)(=O)Nc3ccc(C(F)(F)F)cc3)cc2C1=Cc1cc(Cl)cc(Cl)c1O [10734/E03] | 99.3 | 55.0 |
| O=C1Nc2ccc(I)cc2C1=Cc1ccc(O)c(Br)c1 [10734/B09] | 94.3 | 34.9 |
| Cc1c(Br)ccc2c1C(=Cc1cc(Cl)ccc1O)C(=O)N2 [10734/C04] | 90.7 | 38.1 |
| CCOC(=O)c1cc(C=C2C(=O)Nc3ccc(S(=O)(=O)Nc4ccc(C(F)(F)F)cc4)cc32)oc1C [10718/E06] | 33.4 | 2.0 |
| COc1c([N+](=O)[O-])cc(C=C2C(=O)Nc3ccc(CCCl)cc32)cc1C(C)(C)C [10733/G03] | 30.5 | 0.7 |
| COc1c(O)ccc(C=C2C(=O)Nc3ccc(S(=O)(=O)N4CCOCC4)cc32)c1[N+](=O)[O-] [10733/F11] | 44.4 | 0.6 |
| CC(C)(C)c1cc(C=C2C(=O)Nc3ccc(S(=O)(=O)N4CCOCC4)cc32)cc(I)c1OCc1ccccc1 [10733/F02] | 71.6 | 11.3 |
| CC(C)(C)c1cc(C=C2C(=O)Nc3ccc(CCCl)cc32)cc(C(C)(C)C)c1OCc1ccccc1 [10733/G05] | 1.8 | 1.5 |
| O=C1Nc2ccc(I)cc2C1=Cc1cc(Cl)cc(Cl)c1O [10734/B03] | 90.1 | 45.1 |
| O=C1Nc2ccc(S(=O)(=O)Nc3ccc(C(F)(F)F)cc3)cc2C1=Cc1ccc(Cl)c([N+](=O)[O-])c1 [10718/E08] | 69.6 | 9.3 |
| O=C1Nc2ccc(S(=O)(=O)Nc3ccc(C(F)(F)F)cc3)cc2C1=Cc1cc([N+](=O)[O-])ccc1O [10733/E10] | 52.8 | 31.3 |
| O=C1Nc2ccc(S(=O)(=O)Nc3ccc(C(F)(F)F)cc3)cc2C1=Cc1ccco1 [10718/E10] | 60.8 | -7.5 |
| CC(C)(C)c1cc(C=C2C(=O)Nc3ccc(CCCl)cc32)cc(I)c1OCc1ccccc1 [10733/G02] | 64.5 | -6.2 |
| Cc1[nH]c(C=C2C(=O)Nc3c(Br)cc(Br)cc32)c(Br)c1Br [10717/A11] | 64.8 | 59.9 |
| Cc1c(Br)ccc2c1C(=Cc1cccc(F)c1O)C(=O)N2 [10734/C08] | 93.2 | 35.1 |
| Cc1cc(C=C2C(=O)Nc3ccc(CCCl)cc32)cc(C)c1OCc1ccccc1 [10733/G07] | 8.5 | 18.1 |
| O=C1Nc2c(Br)cc(Br)cc2C1=Cc1ccc(Br)s1 [10734/A11] | 51.9 | 12.5 |
| COc1c(C(C)(C)C)cc(C=C2C(=O)Nc3ccc(CCCl)cc32)cc1C(C)(C)C [10733/G04] | 20.3 | 10.6 |
| CCOc1cccc(C=C2C(=O)Nc3ccc(I)cc32)c1O [10734/B02] | 61.9 | -8.9 |
| O=C1Nc2c(Br)cc(Br)cc2C1=Cc1ccc(O)c(Br)c1 [10734/A09] | 88.4 | 27.3 |
| COc1c(C(C)(C)C)cc(C=C2C(=O)Nc3ccc(S(=O)(=O)Nc4ccc(C(F)(F)F)cc4)cc32)cc1C(C)(C)C [10733/E04] | 17.5 | 45.4 |
| CC(C)(C)c1ccc(C=C2C(=O)Nc3ccc(I)cc32)cc1 [10734/B10] | 82.6 | 60.7 |
| O=C1Nc2ccc(CCCl)cc2C1=Cc1cc(Br)ccc1O [10733/G09] | 41.4 | 38.7 |
| CNS(=O)(=O)c1ccc2c(c1)C(=Cc1cc(Br)cc(Br)c1O)C(=O)N2 [10734/D07] | 92.0 | 51.1 |
| CC(C)(C)c1cc(C=C2C(=O)Nc3ccc(S(=O)(=O)Nc4ccc(C(F)(F)F)cc4)cc32)cc(C(C)(C)C)c1OCc1ccccc1 [10733/E05] | 2.9 | 58.3 |

| SMILES | Met Kinase % Inhibition (MET) [%] | Biochem EGFR %Inhibition (EGFR) [%] |
| --- | --- | --- |
| Cc1c(Br)ccc2c1C(=Cc1ccc(C(C)(C)C)cc1)C(=O)N2 [10734/C10] | 11.6 | 24.4 |
| O=C1Nc2ccc(S(=O)(=O)N3CCOCC3)cc2C1=Cc1cc(Br)ccc1O [10733/F09] | 52.8 | 30.1 |
| CNS(=O)(=O)c1ccc2c(c1)C(=Cc1cccc(F)c1O)C(=O)N2 [10734/D08] | 49.8 | -13.7 |
| Cc1c(Br)ccc2c1C(=Cc1ccc(Br)s1)C(=O)N2 [10734/C11] | 23.9 | 18.0 |
| CC(C)(C)c1ccc(C=C2C(=O)Nc3c(Br)cc(Br)cc32)cc1 [10734/A10] | 55.4 | 27.8 |
| CNS(=O)(=O)c1ccc2c(c1)C(=Cc1cc(Cl)cc(Cl)c1O)C(=O)N2 [10734/D03] | 78.6 | 19.6 |
| CNS(=O)(=O)c1ccc2c(c1)C(=Cc1cc(Cl)ccc1O)C(=O)N2 [10734/D04] | 46.9 | -10.7 |
| Cc1c(Br)ccc2c1C(=Cc1cc(Br)cc(Br)c1O)C(=O)N2 [10734/C07] | 96.8 | 41.0 |
| Cc1cc(C=C2C(=O)Nc3ccc(S(=O)(=O)N4CCOCC4)cc32)cc(C)c1OCc1ccccc1 [10733/F07] | -16.4 | 19.2 |
| O=C1Nc2c(Br)cc(Br)cc2C1=Cc1cccc(F)c1O [10734/A08] | 71.5 | 6.8 |
| COc1c(O)ccc(C=C2C(=O)Nc3ccc(S(=O)(=O)Nc4ccc(C(F)(F)F)cc4)cc32)c1[N+](=O)[O-] [10733/E11] | 71.8 | 31.6 |
| COc1c(O)ccc(C=C2C(=O)Nc3ccc(CCCl)cc32)c1[N+](=O)[O-] [10733/G11] | 32.6 | -1.0 |
| CCN(CC)c1ccc(C=C2C(=O)Nc3ccc(S(=O)(=O)NC)cc32)c(O)c1 [10734/D05] | 55.0 | -9.6 |
| COc1cc(Br)cc(C=C2C(=O)Nc3ccc(CCCl)cc32)c1O [10733/G08] | 79.0 | 44.2 |
| Cc1c(Br)ccc2c1C(=Cc1ccc(O)c(Br)c1)C(=O)N2 [10734/C09] | 88.6 | 36.2 |
| COc1c(C)cc(C=C2C(=O)Nc3ccc(S(=O)(=O)N4CCOCC4)cc32)cc1C [10733/F06] | 20.9 | 17.8 |
| CNS(=O)(=O)c1ccc2c(c1)C(=Cc1ccc(O)c(Br)c1)C(=O)N2 [10734/D09] | 88.0 | 21.0 |
| Cc1cc(C=C2C(=O)Nc3ccc(S(=O)(=O)Nc4ccc(C(F)(F)F)cc4)cc32)cc(C)c1OCc1ccccc1 [10733/E07] | -10.1 | 19.9 |
| O=C1Nc2ccc(S(=O)(=O)Nc3ccc(C(F)(F)F)cc3)cc2C1=Cc1ccc([N+](=O)[O-])o1 [10718/E11] | 37.5 | -15.2 |
| CCN(CC)c1ccc(C=C2C(=O)Nc3c(Br)cc(Br)cc32)c(O)c1 [10734/A05] | 69.9 | 22.6 |
| O=C1Nc2ccc(S(=O)(=O)N3CCOCC3)cc2C1=Cc1cc([N+](=O)[O-])ccc1O [10733/F10] | 24.4 | 21.9 |
| COc1cc(Br)cc(C=C2C(=O)Nc3ccc(S(=O)(=O)Nc4ccc(C(F)(F)F)cc4)cc32)c1O [10733/E08] | 81.1 | 54.2 |
| CNS(=O)(=O)c1ccc2c(c1)C(=Cc1ccc(Br)s1)C(=O)N2 [10734/D11] | 33.9 | 14.6 |
| CC(C)(C)c1cc(C=C2C(=O)Nc3ccc(S(=O)(=O)N4CCOCC4)cc32)cc(C(C)(C)C)c1OCc1ccccc1 [10733/F05] | 65.1 | 84.6 |
